The target in one test is T1, kinase domain of ULK2 (Homo sapiens, UniProt Q8IYT8).
T1 sequence (Q8IYT8 1-276 limits assumed): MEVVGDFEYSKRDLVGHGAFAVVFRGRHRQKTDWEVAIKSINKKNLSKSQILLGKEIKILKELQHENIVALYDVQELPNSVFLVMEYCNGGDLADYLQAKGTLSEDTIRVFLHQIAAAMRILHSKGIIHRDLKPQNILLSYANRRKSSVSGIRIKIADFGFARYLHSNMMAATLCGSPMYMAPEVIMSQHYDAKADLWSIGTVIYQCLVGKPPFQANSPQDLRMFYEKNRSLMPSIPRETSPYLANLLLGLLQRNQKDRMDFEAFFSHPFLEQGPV
As to conditions: binder.

The target of another test is T2, kinase domain of ULK1 (Homo sapiens, UniProt O75385).
T2 sequence (O75385 1-283 limits assumed): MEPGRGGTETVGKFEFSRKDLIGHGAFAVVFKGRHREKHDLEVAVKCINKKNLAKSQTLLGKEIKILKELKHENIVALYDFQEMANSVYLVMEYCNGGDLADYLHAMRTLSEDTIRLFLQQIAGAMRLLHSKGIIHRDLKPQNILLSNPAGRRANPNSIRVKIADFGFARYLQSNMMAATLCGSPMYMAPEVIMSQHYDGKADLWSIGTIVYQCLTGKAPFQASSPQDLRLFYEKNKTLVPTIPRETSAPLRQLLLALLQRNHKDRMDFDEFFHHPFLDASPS
The note with it: binder.

The target of test [1] is T3, ULK2 (Homo sapiens, UniProt Q8IYT8).
T3 sequence (Q8IYT8 1-1036): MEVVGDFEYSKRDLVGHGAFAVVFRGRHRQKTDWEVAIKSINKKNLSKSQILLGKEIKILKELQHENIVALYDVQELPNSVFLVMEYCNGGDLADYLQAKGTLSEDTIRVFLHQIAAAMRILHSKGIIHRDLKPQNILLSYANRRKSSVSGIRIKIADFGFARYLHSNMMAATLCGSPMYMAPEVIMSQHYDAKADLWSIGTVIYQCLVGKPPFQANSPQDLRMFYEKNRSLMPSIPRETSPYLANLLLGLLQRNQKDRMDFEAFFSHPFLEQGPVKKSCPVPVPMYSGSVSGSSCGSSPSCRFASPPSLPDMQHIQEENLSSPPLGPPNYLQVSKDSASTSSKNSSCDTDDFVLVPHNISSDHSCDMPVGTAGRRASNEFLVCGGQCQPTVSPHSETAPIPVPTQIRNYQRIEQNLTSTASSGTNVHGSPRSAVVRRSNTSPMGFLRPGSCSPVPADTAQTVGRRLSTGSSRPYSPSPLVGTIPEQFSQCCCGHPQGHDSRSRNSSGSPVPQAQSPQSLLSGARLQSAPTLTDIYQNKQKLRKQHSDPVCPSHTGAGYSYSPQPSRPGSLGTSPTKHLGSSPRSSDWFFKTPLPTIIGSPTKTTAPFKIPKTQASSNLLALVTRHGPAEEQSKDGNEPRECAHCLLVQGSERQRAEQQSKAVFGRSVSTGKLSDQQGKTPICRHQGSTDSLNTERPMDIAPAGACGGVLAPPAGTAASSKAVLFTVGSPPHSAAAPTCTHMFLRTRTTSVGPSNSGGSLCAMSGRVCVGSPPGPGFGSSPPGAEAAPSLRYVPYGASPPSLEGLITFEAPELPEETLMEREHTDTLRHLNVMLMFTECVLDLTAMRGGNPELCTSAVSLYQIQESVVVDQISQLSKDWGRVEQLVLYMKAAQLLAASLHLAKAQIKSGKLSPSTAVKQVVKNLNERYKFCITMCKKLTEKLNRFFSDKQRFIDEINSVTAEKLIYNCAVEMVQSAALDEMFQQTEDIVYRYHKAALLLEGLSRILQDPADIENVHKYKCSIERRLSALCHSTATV
As to the kind of experiment: ADP-Glo kinase assay. Type of test: biochemical. (In ADP-Glo the light output rises with the ADP produced.)

In test [2] the target is T4, ULK1 (Homo sapiens, UniProt O75385).
T4 sequence (O75385 1-1050): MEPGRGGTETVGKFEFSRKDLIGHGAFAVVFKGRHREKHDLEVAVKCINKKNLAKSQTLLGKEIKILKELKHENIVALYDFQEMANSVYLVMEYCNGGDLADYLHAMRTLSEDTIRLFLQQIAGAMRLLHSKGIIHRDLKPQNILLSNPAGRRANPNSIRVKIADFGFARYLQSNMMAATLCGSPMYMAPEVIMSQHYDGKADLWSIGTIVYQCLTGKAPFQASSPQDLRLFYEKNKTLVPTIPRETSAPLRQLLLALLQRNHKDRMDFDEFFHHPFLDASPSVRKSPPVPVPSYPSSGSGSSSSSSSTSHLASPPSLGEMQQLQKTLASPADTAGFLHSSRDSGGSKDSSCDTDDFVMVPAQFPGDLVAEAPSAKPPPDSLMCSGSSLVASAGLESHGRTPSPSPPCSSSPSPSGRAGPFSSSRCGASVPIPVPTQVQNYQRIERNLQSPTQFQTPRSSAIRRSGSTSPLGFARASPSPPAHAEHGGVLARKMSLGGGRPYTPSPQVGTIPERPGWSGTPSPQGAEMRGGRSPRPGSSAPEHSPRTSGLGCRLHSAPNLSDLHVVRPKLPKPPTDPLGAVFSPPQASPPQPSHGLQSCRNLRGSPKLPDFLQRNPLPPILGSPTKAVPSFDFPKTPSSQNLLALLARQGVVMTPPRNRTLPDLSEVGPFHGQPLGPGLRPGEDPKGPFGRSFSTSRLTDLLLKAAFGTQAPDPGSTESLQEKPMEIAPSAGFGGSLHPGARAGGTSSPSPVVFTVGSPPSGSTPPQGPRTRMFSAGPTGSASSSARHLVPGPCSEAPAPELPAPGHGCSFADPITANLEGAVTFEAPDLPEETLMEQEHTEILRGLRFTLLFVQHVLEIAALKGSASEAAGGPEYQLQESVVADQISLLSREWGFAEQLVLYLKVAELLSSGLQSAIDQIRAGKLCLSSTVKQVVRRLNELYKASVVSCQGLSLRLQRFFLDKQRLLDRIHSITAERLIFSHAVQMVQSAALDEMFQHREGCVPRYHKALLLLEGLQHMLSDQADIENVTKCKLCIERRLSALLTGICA
As to the kind of experiment: ADP-Glo kinase assay. The test is classed as biochemical.

For another test, the target named is T5, ULK1 (NanoBRET) (Homo sapiens, UniProt O75385).
T5 sequence (O75385 1-1050): T4 sequence (O75385 1-1050)
As to the kind of experiment: NanoBRET cellular target engagement. The test is classed as cell-based.

The target of test [3] is T4, ULK1. The test is described as follows: biochemical.
Test [4] has as its target T3, ULK2. As to the kind of experiment: biochemical.

The term IC50 denotes the concentration at which inhibition is half-maximal. The low end stands for greater potency in that assay, the high end for weaker potency in that assay. As to `CNC(=O)c1ccccc1Nc1nc(Nc2ccc3c(c2)CCC(=O)N3)ncc1Cl` [6e, 2-(5-Chloro-2-(2-oxo-1,2,3,4-tetrahydroquinolin-6-ylamino)pyrimidin-4-ylamino)-N-methylbenzamide], the “ULK2 PTS (ºC)” value at kinase domain of ULK2 was determined as 0.43 ± 0.34 °C. Further, the “ULK1 PTS (ºC)” value on kinase domain of ULK1 came out at 0.15 ± 0.06 °C. The IC50 turned out to be 1.44 µM against ULK2 [1] and 0.022 µM at ULK1 [2].
As to `CNC(=O)c1ccccc1Nc1nc(Nc2cc(OC)c(OC)c(OC)c2)ncc1Cl` [6o, 2-(5-Chloro-2-(3,4,5-trimethoxyphenylamino)pyrimidin-4-ylamino)-N-methylbenzamide], the IC50 turned out to be 0.00405 µM at ULK1 (NanoBRET) and 0.008 µM on ULK1 [2]. The “ULK2 PTS (ºC)” value at kinase domain of ULK2 was found to be 12.01 ± 0.05 °C. Moreover, on kinase domain of ULK1, the “ULK1 PTS (ºC)” value is 14.25 ± 0.11 °C.
Regarding `CNC(=O)c1ccccc1Nc1nc(Nc2cc(OC)c(OC)c(OC)c2)ncc1C(F)(F)F` [6p, N-Methyl-2-(5-(trifluoromethyl)-2-(3,4,5-trimethoxyphenylamino)pyrimidin-4-ylamino)benzamide], the IC50 is 0.01 µM against ULK1 (NanoBRET), 0.007 µM against ULK2 [1] and 0.01 µM at ULK1 [2]. Also, the “ULK2 PTS (ºC)” value on kinase domain of ULK2 was found to be 15.81 ± 0.06 °C. Moreover, the “ULK1 PTS (ºC)” value on kinase domain of ULK1 amounted to 16.50 ± 0.15 °C.
In the case of `CNC(=O)c1ccccc1Nc1nc(Nc2ccc3c(c2)CCC(=O)N3)ncc1C(F)(F)F` [6d, N-Methyl-2-(2-(2-oxo-1,2,3,4-tetrahydroquinolin-6-ylamino)-5-(trifluoromethyl)pyrimidin-4-ylamino)benzamide], the IC50 against ULK1 (NanoBRET) came out at 0.103 µM; on ULK2 [1] it was 0.172 µM; at ULK1 [3] it was 0.008 ± 0.002 µM. Also, on kinase domain of ULK2, the “ULK2 PTS (ºC)” value was 3.73 ± 0.81 °C. In addition, the “ULK1 PTS (ºC)” value on kinase domain of ULK1 was determined as 7.70 ± 0.43 °C.
In the case of `CNC(=O)c1ccccc1Nc1nc(Nc2cc(N3CCOCC3)cc(N3CCOCC3)c2)ncc1C(F)(F)F` [6r, 2-(2-(3,5-dimorpholinophenylamino)-5-(trifluoromethyl)pyrimidin-4-ylamino)-N-methylbenzamide], the IC50 against ULK1 (NanoBRET) worked out at 0.017 µM; against ULK1 [3] it was 0.015 ± 0.001 µM; against ULK2 [4], 0.019 ± 0.003 µM. Besides, the “ULK2 PTS (ºC)” value at kinase domain of ULK2 amounted to 16.70 ± 0.05 °C. Further, on kinase domain of ULK1, the “ULK1 PTS (ºC)” value stood at 17.28 ± 0.06 °C.
Take `CNC(=O)c1ccccc1Nc1ccnc(Nc2cc(OC)c(OC)c(OC)c2)n1` [6q, N-Methyl-2-(2-(3,4,5-trimethoxyphenylamino)pyrimidin-4-ylamino)benzamide]: the “ULK2 PTS (ºC)” value at kinase domain of ULK2 was 2.71 ± 0.09 °C. Further, the “ULK1 PTS (ºC)” value on kinase domain of ULK1 worked out at 5.18 ± 0.17 °C. The half-maximal inhibitory concentration (IC50) on ULK2 [1] is 30 µM; at ULK1 [2] it was 0.603 µM; at ULK2 [4], greater than 3 µM.
As for `CNC(=O)c1ccccc1Nc1nc(Nc2ccc(N3CCOCC3)cc2OC)ncc1Cl` [6a, 2-(5-Chloro-2-(2-methoxy-4-morpholinophenylamino)pyrimidin-4-ylamino)-N-methylbenzamide], the “ULK2 PTS (ºC)” value at kinase domain of ULK2 was 2.31 ± 0.09 °C. The “ULK1 PTS (ºC)” value at kinase domain of ULK1 is 3.65 ± 0.07 °C. Further, the IC50 is greater than 3 µM against ULK2 [1] and 0.153 µM against ULK1 [2].

Values taken from paper doi:10.1101/2025.10.14.682402v1 (biorxiv, 2025).
